Here are results for 9 compounds from patent US5620973A, “Tetracyclic condensed heterocyclic compounds and their use” (priority 1993, dated 1997).

The target of one data set is T1, Acetylcholinesterase (Rattus norvegicus, UniProt P37136).
T1 construct: using the S1 fraction of a male Wistar rat cerebral cortex homogenate as a source of cholinesterase; from tissue; host or cells: male Wistar rat cerebral cortex homogenate, S1 fraction
Nature of the data set: biochemical. Also on record: species or system male Wistar rat.

Data set [1] relates to norepinephrine (NE) reuptake. Nature of the data set: monoamine reuptake inhibitory activity, [^3 H]-norepinephrine (NE). Conditions: [^3 H]-NE 11 nM; P2 pellet of rat cerebral cortex and hippocampus; 37° C., 5 minutes; read-out: Monoamine uptake inhibitory activity IC50, NE. The format is biochemical, male JCl: Wistar rats. Here is the method:
(§1) The monoamine reuptake inhibitory activity of the compound of this invention was evaluated using [^3 H]-norepinephrine (NE) and [^3 H]-serotonin(5-HT).
(§2) Thus, the brain was enuleated from male JCl: Wistar rats (aged 9-13 weeks) and the cerebral cortex and the hippocampus were isolated. The tissue was homogenized (Potter, 5 strokes) with about 10-15 volumes of ice-cooled 0.32M sucrose and centrifuged at 1.000×g for 10 minutes. The supernatant was further centrifuged at 20,000×g for 20 minutes to provide a pellet (P2). This pellet was suspended in Krebs-Ringer bicarbonate solution (KRB) (KRB: 116 mM NaCl, 4.8 mM KCl, 1.3 mM CaCl2, 1,2 mM MgSO4, 1,2 mM NaH2 PO4, 25 mM NaHCO3, 0.1 mM EDTA-2Na, 11.1 mM D-glucose, 0.11 mM L-ascorbic acid, 0.01 mM pargyline-HCl; 95% O2 /5% CO2) and aliquots of the suspension were used for assays.
(§3) The test compound (10 μl as dissolved in DMSO at 100 times the final concentration) was mixed with 900 μl of the P2 suspension and the mixture was preincubated at 37° C. for 5 minutes. Then, 100 μl of [^3 H]-NE (final concentration 11 nM) or [^3 H]-5-HT (final concentration 10 nM) was added and the mixture was incubated at 37° C. for 5 minutes. […] The filter was transferred to a minature vial, 4 ml of scintillator was added, and the radioactivity was counted with a liquid scintillation counter. […]

The test system of data set [2] is serotonin (5-HT) reuptake. Nature of the data set: monoamine reuptake inhibitory activity, [^3 H]-serotonin (5-HT). The format is biochemical, male JCl: Wistar rats. Conditions: [^3 H]-5-HT 10 nM; P2 pellet of rat cerebral cortex and hippocampus; 37° C., 5 minutes; read-out: Monoamine uptake inhibitory activity IC50, 5-HT. On the procedure: as §1, §2, §3
The conditions of data set [3]: cited from earlier work; for anti-senile dementia activity: Int. J. Clin. Pharmacol. Ther. Toxicol. 29, 23-37, 1991.
Where [4] appears, read: S1 fraction of male Wistar rat cerebral cortex homogenate, 30 minutes incubation, read-out: Acetylcholinesterase inhibitory activity IC50.

The IC50 is the concentration at which inhibition is half-maximal.

Where a name gives a salt, the structure may show the parent alone. Read-outs that look alike come from different tables or passages of the source.

T1 sequence (P37136 32-614): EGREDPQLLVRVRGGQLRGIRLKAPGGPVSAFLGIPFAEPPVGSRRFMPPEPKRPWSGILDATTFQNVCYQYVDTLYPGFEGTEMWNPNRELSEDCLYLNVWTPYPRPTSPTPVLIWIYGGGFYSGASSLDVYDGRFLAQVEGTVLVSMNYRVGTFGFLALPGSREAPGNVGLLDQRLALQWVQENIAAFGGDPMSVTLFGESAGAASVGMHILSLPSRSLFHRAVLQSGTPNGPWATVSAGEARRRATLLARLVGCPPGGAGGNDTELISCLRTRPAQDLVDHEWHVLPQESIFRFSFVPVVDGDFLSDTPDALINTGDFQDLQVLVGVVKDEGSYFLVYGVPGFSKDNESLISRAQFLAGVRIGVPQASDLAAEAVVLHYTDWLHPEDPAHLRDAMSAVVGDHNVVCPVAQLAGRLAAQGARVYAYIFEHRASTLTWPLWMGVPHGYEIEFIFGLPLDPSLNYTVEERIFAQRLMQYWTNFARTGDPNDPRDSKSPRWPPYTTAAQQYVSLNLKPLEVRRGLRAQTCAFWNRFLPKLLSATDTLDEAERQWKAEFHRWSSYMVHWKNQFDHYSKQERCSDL
Experimental for Acetylcholinesterase: The cholinesterase inhibitory activity of the compound of this invention was evaluated using (acetyl[[^3 H])-acetylcholine. Thus, using the S1 fraction of a male Wistar rat cerebral cortex homogenate as a source of cholinesterase, (acetyl[^3 H])-acetylcholine as a substrate, and the compound of this invention as a test substance, the system was incubated for 30 minutes. The reaction was then stopped and a toluenic scincillator was added. After shaking, [^3 H]-acetic acid produced and transferred into the toluene layer was counted with a liquid scincillation counter to estimate the cholinesterase inhibitory activity of the test substance.

`O=C(CCN1CCN(Cc2cccc(F)c2)CC1)c1ccc2c(c1)CN1C(=O)c3ccccc3C1CC2` (stereo not drawn) [Example 6-3]: on Acetylcholinesterase (setting [4]), the IC50 was 17.4 nM.
As for `CN(C)CCCN1c2ccccc2CCc2ccccc21` [Imipramine, imipramine, reference compound], the IC50 came out at 1120 nM in data set [1] and 63 nM in data set [2].
With `O=C(CCN1CCN(Cc2cccc(Cl)c2)CC1)c1ccc2c(c1)CN1C(=O)c3ccccc3C1CC2` (stereo not drawn) [Example 6-2], the IC50 at Acetylcholinesterase (setting [4]) stood at 65.5 nM.
With `O=C(CCN1CCN(Cc2ccccc2)CC1)c1cc2c3c(c1)C1CCCCC1N3C(=O)CC2` (stereo not drawn) [Example 1, 5-[3-[4-(Phenylmethyl)-1-piperazinyl]-1-oxopropyl]-2,3,6b,7,8,9,10,10a-octahydro-1H-pyrido[3,2,1-jk]carbazol-6-one dihydrochloride], the IC50 at Acetylcholinesterase (setting [4]) was 77.5 nM.
`O=C(CCC1CCN(Cc2ccccc2)CC1)c1cc2c3c(c1)C1CCCCC1N3C(=O)CC2` (stereo not drawn) [Example 7, 5-[3-[1-(Phenylmethyl)-4-piperidinyl]1-oxopropyl]-2,3,6b, 7,8,9,10,10a-octahydro-1H-pyrido[3,2,1-jk]carbazol-6-one fumarate]: at Acetylcholinesterase, the midpoint of inhibition, the IC50, lay at 7.93 nM.
Take `Nc1c2c(nc3ccccc13)CCCC2` [THA, tacrine]: the anti-senile dementia activity entry in data set [3] was “have been found to have anti-senile dementia activity”. In data set [3] (background), the hepatic impairment result was “severe hepatic impairment is often associated”.
Consider `CNC(=O)Oc1ccc2c(c1)[C@]1(C)CCN(C)[C@@H]1N2C` (stereo in doubt) [Physostigmine, physostigmine], for which the anti-senile dementia activity result in data set [3] is given as “have been found to have anti-senile dementia activity”. In addition, in data set [3] (background), the duration of action result was “short duration of action” and the toxic potential result is on record as “high toxic potential”.
For the compound `O=C(CCC1CCN(Cc2ccccc2)CC1)c1ccc2c(c1)CN1C(=O)c3ccccc3C1CC2` (stereo not drawn) [Example 4, 3-[3-[1-(Phenylmethyl)-4-piperidinyl]-1-oxopropyl]-7,11b,12,13-tetrahydro-5H-isoindolo[2,1-b][2]benzazepin-7-one hydrochloride], at Acetylcholinesterase, 2.4 nM corresponded to half-maximal inhibition (IC50).
As to `O=C(CCN1CCN(Cc2ccccc2)CC1)c1ccc2c(c1)CN1C(=O)c3ccccc3C1CC2` (stereo not drawn) [Example 2-1], the results for the IC50 (in data set [1]; in data set [2]; at Acetylcholinesterase (setting [4])) were 1040 nM, 70 nM and 16.4 nM, respectively.
